According to patent publication US20260345834A1, “NIR-LIGHT ACTIVATABLE NANOGEL DELIVERY SYSTEM” (THE BOARD OF TRUSTEES OF THE UNIVERSITY OF ILLINOIS, priority 2022, published 2026):

What was measured:
Type in all cases: physicochemical
[1] = Passive release of encapsulated cargo via dialysis; settings: drug-loaded NIR-nanogel, dialysis against MilliQ/DI water; for passive leeching of cargo (concentration loss): three hours
Experimental: FIG. 10A-D. Passive release of encapsulated a) cisplatin b) gefitinib c) GW9662 and d) Paclitaxel via dialysis for 0, 1, 2, and 4 hours against DI water.
After extensive screening, we obtained an optimized procedure that yielded reliable encapsulation results for each drug. We discovered that slow addition (versus bolus addition) of the drug to NIR-nanogel samples was essential to maintain a homogeneous suspension of the particles in solution. Further, the inclusion of at least 10% ethanol as a solubilizing co-solvent was necessary for drug encapsulation. […] After removal of non-encapsulated drug, we established a method to assess passive leeching of the contents by dialyzing the drug-loaded sample against MilliQ water. Small aliquots were removed at various time points and compared to the initial cargo concentration. […] In general, the extent of passive cargo loss was determined by placing a photobleached sample of each drug-loaded NIR-nanogel in 3 kDa MWCO dialysis tubing for dialysis against DI water. Aliquots were taken to determine the absorbance at various time points for comparison against the corresponding calibration curve.

[2] = Absorption spectrum and extinction coefficient in DMSO
Text: With the various components in hand, we turned our attention to testing whether the amide moiety would impact the photophysical properties of the cyanine core. First, we analyzed the absorption spectrum and measured the extinction coefficient of Cy780-Acryl. Compared to the Cy7-Cl reference in DMSO, the λmax (831 nm cf. 793 nm) and extinction coefficients (1.11×10^5 M^−1cm^−1 cf. 1.23×10^5 M^−1cm^−1) were similar. Next, we evaluated the photostability of the crosslinker. When Cy780-Acryl (as well as Cy780-Acetamido) was irradiated with a LED light source at 780 nm (300 mW power output, 47.3 μW/mm^2 maximum irradiance), we found complete degradation of the molecule after only 25 minutes based on the disappearance of the NIR absorbance band (FIG. 2). […] Of note, when dissolved oxygen was removed prior to the initiation of photobleaching, we found the change in absorbance to be minimal, supporting the proposed dioxetane mechanism (FIG. 4). Indeed, the anticipated carbonyl fragmentation products were detected via LC-MS when samples were irradiated in the presence of oxygen (FIG. 5).
^1H and ^13C NMR spectra were acquired on a Varian 500 or Carver B500 spectrometer. […] Spectra were visualized and analyzed using MestReNova (version 14.2) and referenced to trace non-deuterated solvent. […]

[3] = Photobleaching under 780 nm LED irradiation (NIR absorbance)
Experimental: FIG. 2. […] Time points=0, 15, 30 mins. Samples were irradiated with a LED light source at 780 m, (300 mW power output, 47.3 μW/mm^2 maximum irradiance).
FIG. 3. Absorption measurements of a 25 μM solution of a) Cy7-Cl and b) Cy780-Acryl when irradiated with a 780 nm LED light. Time points=0, 15, 30 mins. Samples were irradiated with a LED light source at 780 m, (300 mW power output, 47.3 μW/mm^2 maximum irradiance).
FIG. 4. Absorption measurements of a NIR-nanogel sample without dissolved oxygen when irradiated with a 780 nm LED light. Time points=0, 15, 30, 45, 60, 75, 90 mins. Samples were irradiated with a LED light source at 780 m, (300 mW power output, 47.3 μW/mm^2 maximum irradiance).
Time points=0, 15, 30, 45, 60, 90, 120, 150, 180 mins. b) Diameter of NIR-nanogels with and without NIR light irradiation measured via dynamic light scattering (left) and scanning electron microscopy (right). […] (n=300 for SEM) Scale bar represents 500 nm. e) Normalized absorbance of nanogels exposed to biologically relevant reactive species. f) Normalized absorbance of nanogels suspended in Britton-Robinson buffer (pH 4.2 to 12.0). […]
With the various components in hand, we turned our attention to testing whether the amide moiety would impact the photophysical properties of the cyanine core. First, we analyzed the absorption spectrum and measured the extinction coefficient of Cy780-Acryl. […]

Compound	passive leeching of cargo (concentration loss) [1]	passive release of cargo (result in words) [1]	also measured
N.N.[Cl][Pt][Cl] [cisplatin]	~ 50%		
O=C(Nc1ccccc1)c1cc([N+](=O)[O-])ccc1Cl [GW9662]		no passive release	
COc1cc2ncnc(Nc3ccc(F)c(Cl)c3)c2cc1OCCCN1CCOCC1 [gefitinib]	~ 6%		
C=CC(=O)Nc1ccc2c(c1)C(C)(C)C(/C=C/C1=C(Cl)C(=C/C=C3/N(CC)c4ccc(NC(=O)C=C)cc4C3(C)C)/CCC1)=[N+]2CC [Cy780-Acryl]			extinction coefficient [2]: 111000 M⁻¹ cm⁻¹; λmax [2]: 831 nm; change in absorbance on irradiation without dissolved oxygen ([3]; 780 nm LED, dissolved oxygen removed prior to photobleaching): minimal; time to complete degradation (disappearance of the NIR absorbance band) ([3]; LED 780 nm, 300 mW power output, 47.3 μW/mm^2 maximum irradiance): 25 min
CC(=O)O[C@H]1C(=O)[C@@]2(C)[C@H]([C@H](OC(=O)c3ccccc3)[C@]3(O)C[C@H](OC(=O)[C@H](O)[C@@H](NC(=O)c4ccccc4)c4ccccc4)C(C)=C1C3(C)C)[C@]1(OC(C)=O)CO[C@@H]1C[C@@H]2O [paclitaxel]		minimal leeching	
